In US8377963B2, “Insulin-regulated aminopeptidase (IRAP) inhibitors and uses thereof” (Howard Florey Institute, priority 2007, dated 2013):

Legend:
rats [1] = assay: Novel object recognition task; assay type: in vivo, rat; conditions: for Recognition Index: rats, n=10/group
Description: (§1) All experiments were performed according to the National Health and Medical Research Council of Australia “Code of practise for the care and use of animals for scientific purposes”. Male Spraque Dawley rats, (250-270 g) are housed individually and given water and standard rat chow ad libitum. On the day of surgery, the rats were anaesthetized with 5% isofluorane, placed in a stereotaxic frame and maintained on 2% isofluorane for the duration of the cannula implantation procedure. The rats were stereotaxically implanted with chronic indwelling cannula (Plastics One) into the cerebral lateral ventricles using the following flat skull coordinates 0.8 mm posterior to Bregma, 1.55 mm lateral to midline and 3.5 mm ventral to the dura. The cannula was then secured to the skull with stainless steel screws and dental cement. Seven days following surgery, proper cannula placement was verified by a bolus injection of angiotensin II (1 nmol/μl).
The rats are allowed at least 5 days post-operative recovery prior to use in any behavioural paradigms. On the day of the acquisition trial, the rats were habituated for 5 min in the testing box (made from grey perspex of dimensions 60 cm width×60 cm length×50 cm height) in diffuse dim light and then returned to their home cage. The animals were then rested for at least 2 h and then injected with 1 nmol or 0.1 nmol Compound 2 in 2 μl of 10% dimethyl sulfoxide (DMSO). Control animals received 2 μl of 10% DMSO. Following drug administration, the rats were returned to their home cage for 5 min and then placed in the testing box facing the opposite direction to 2 identical objects that have been secured to the floor in adjacent corners of the box. The rats were allowed 5 min to explore the objects and the definition of explore is that the animal's nose is less than 2 cm from object when it is facing the object. […] The recognition index was determined as the time spent exploring the novel object minus the time spent on the familiar object divided by the time spent on both object.

IRAP = biological target: T1, IRAP (Homo sapiens, UniProt Q9UIQ6); assay: IRAP enzymatic assay (hydrolysis of Leu-MCA); assay type: biochemical; conditions: substrate Leu-MCA, solubilized membranes of HEK 293T cells transfected with IRAP
T1 construct: expressed in transfected cells; host or cells: HEK 293T
T1 sequence (Q9UIQ6 whole entry): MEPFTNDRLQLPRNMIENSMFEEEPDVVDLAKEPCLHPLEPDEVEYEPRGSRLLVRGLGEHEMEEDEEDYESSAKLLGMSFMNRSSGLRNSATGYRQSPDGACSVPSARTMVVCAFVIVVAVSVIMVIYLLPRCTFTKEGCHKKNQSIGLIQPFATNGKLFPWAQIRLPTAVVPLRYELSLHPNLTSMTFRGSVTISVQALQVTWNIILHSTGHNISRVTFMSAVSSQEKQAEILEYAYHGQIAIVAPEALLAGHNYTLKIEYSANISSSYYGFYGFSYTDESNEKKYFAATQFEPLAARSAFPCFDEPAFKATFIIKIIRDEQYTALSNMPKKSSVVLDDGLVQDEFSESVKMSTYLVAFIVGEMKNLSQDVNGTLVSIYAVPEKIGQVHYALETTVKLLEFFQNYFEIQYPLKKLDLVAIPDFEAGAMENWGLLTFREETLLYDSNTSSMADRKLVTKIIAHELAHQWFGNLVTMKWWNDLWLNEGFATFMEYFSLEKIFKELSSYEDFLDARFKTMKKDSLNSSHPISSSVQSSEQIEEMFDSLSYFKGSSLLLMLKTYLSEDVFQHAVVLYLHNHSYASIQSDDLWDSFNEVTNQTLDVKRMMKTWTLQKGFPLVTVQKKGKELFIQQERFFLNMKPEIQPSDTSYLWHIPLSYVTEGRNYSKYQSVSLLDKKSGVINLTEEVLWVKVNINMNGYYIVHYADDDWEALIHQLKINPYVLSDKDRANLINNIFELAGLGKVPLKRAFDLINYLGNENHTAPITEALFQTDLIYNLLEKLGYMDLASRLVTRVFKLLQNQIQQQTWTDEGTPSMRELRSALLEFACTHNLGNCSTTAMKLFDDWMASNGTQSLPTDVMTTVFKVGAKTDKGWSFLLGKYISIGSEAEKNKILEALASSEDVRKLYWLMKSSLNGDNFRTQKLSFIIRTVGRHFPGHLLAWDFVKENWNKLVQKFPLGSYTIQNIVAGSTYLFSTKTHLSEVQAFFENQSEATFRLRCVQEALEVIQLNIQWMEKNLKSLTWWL
Description: An in vitro enzymatic assay was used to initially assess IRAP inhibitory activity.
After solubilization, the membranes were pelleted by centrifugation at 23,100 g for 15 min at 4° C., and the supernatant was reserved as the source of IRAP activity. The enzymatic activities of IRAP were determined by the hydrolysis of the synthetic substrate Leu-MCA (Sigma-Aldrich, Missouri, USA) monitored by the release of a fluorogenic product, MCA, at excitation and emission wavelengths of 380 and 440 nm, respectively. Assays were performed in 96-well plates; each well contains between […] solubilized membrane protein, a range of concentration of substrate in a final volume of 100 μL 50 mM Tris-HCl buffer (pH 7.4). Non-specific hydrolysis of the substrate was corrected by subtracting the emission from incubations with membranes transfected with empty vector. Reactions proceeded at 37° C. for 30 min within a thermostatted FLEX station fluorescence microplate reader (Molecular Devices, Sunnyvale, Calif.). […] Km values of IRAP for Leu-MCA were determined from the kinetic studies. […] All data obtained were from at least three separate experiments performed in duplicate.

rats [2] = assay: Locomotor cell activity; assay type: in vivo, rat; conditions: 30 mins; for Distance travelled (% control): rats, n=8 per group
Description: as §1
Locomotor activity of rats treated with 1 nmol Compound 2 intracerebrocentricularly was monitored in special cages measuring 40×40×40 cm (Coulbourn Instruments, Philadelphia, USA) equipped with harmless infrared photobeams. Activity was measured when pairs of photobeams spaced 2.54 cm apart providing a 1.27 cm spatial resolution were crossed. Data was collected and analysed using TruScan Photo Beam Activity system (Coulbourn Instruments, Philadelphia, USA). Each rat was placed in the arena for 30 min.

rats [3] = assay: Elevated plus maze (stress or anxiety); assay type: in vivo, rat; conditions: for Time spent in the open arm (% control): rats, n=8 per group
Description: as §1
The elevated plus maze was used to investigate the potential effect of IRAP inhibitors on stress or anxiety. The elevated plus maze consists of two open arms (70×10 cm) with a 5 cm high surrounding wall and two enclosed arms (70×10 cm) with a 27 cm high surrounding wall. The floor of the open and closed arms are white laminate, the open arm walls are clear perspex, and the closed arms walls dark grey perspex. The maze is elevated 85 cm above the ground in the centre of a room that is lit by overhead lights generating 1241 ux. […] The time spent in the closed arms compared to the open arms was a measure of the anxiety status of the animals.

Recombinant human LTA4H = biological target: T2, Recombinant human LTA4H (Homo sapiens, UniProt P09960); assay: Leukotriene A4 hydrolase assay; assay type: biochemical; conditions: 100 μM; read-out: % inhibition of the catalytic activity of the enzyme
T2 construct: purchased Cayman Chemicals
T2 sequence (P09960 1-611): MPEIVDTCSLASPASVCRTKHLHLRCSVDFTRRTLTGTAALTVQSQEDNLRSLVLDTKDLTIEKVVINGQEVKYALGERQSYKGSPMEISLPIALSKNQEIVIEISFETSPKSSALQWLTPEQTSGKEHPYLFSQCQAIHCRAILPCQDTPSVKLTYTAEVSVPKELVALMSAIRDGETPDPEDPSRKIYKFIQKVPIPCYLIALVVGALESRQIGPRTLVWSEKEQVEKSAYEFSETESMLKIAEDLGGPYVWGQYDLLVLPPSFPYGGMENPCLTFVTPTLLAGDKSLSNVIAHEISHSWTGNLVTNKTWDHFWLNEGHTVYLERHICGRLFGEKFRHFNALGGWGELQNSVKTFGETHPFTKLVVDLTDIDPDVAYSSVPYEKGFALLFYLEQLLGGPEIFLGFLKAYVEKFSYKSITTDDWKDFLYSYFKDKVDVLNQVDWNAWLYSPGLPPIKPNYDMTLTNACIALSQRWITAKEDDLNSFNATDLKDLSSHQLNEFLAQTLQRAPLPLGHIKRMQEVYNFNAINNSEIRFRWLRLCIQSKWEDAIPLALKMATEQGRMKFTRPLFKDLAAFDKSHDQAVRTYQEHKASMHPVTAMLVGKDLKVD
Description: Leukotriene A4 hydrolase assay. Recombinant human LTA4H (Cayman Chemicals Michigan USA) (1-20 μg) was incubated at room temperature with alanine-p-nitroanilide as substrate in 50 mM Tris-HCl buffer, pH 8.0, containing 100 mM KCl with or without increasing concentrations of an inhibitor. The absorbance at 405 nm was measured at 10 min intervals.
Limited inhibition of control enzymes was observed.

[4] = 0.1 nmol intracerebroventricularly
[5] = 1 nmol intracerebroventricularly
[6] = 0.1 and 1 nmol intracerebroventricularly

- IC50 (IRAP): 790 nM
- Ki (IRAP; calculated from IC50=Ki(1+[S]/Km), read-out: K1): 480 nM
- Distance travelled (% control) (rats [2]; [4]): 85.12 ± 12.99 % control
- Distance travelled (% control) (rats [2]; [5]): 90.16 ± 6.73 % control
- Time spent in the open arm (% control) (rats [3]; [4]): 121.62 ± 28.26 % control
- Time spent in the open arm (% control) (rats [3]; [5]): 127.88 ± 19.18 % control
- stress compared to vehicle, by time spent in the open arm of the elevated plus maze (rats [3]; [6]): not significantly more or less stressed
- inhibition at 100 µM (Recombinant human LTA4H): 0%
SMILES: CCOC(=O)C1=C(NC(C)=O)Oc2cc(O)ccc2C1c1cccnc1 (stereo not drawn) [Compound 2, Ethyl 2-(acetylamino)-7-hydroxy-4-pyridin-3-yl-4H-chromene-3-carboxylate]
- Recognition Index (rats [1]; [4]): 35.82 ± 7.30
- Recognition Index (rats [1]; [5]): 45.09 ± 9.97
- recognition of a novel object compared to vehicle treated control rats (rats [1]; 1 and 0.1 nmole intracerebroventricularly, after 24 h, p<0.05): better recognition of a novel object
- locomotor activity compared to vehicle, by crossing of infrared beams and total distance travelled (rats [2]; [6]): did not exhibit increased or decreased locomotor activity
